# Article PMC9396645 (Frontiers in Chemistry, 2022)
# Test system: C4-2 cells
# Test: Internalization efficiency / specific cell uptake in C4-2 cells
# Format: cell-based, human
# Conditions: ^68Ga-labeled compounds 30 nM, 45 min, 37°C, specificity by 2-PMPA 500 μM, mean ± SD (n = 3)
# Description: The specific internalization ratio was determinated in 24-well plates. The plates were previously coated with 0.1% poly-L-lysine in PBS for 20 min and washed with PBS once. C4-2 cells (10^5 cells per analysis) were added to each well and equilibrated overnight. The cells were incubated for 45 min with 250 µL of a 30 nM solution of the ^68Ga-labeled compounds either in a water bath at 37°C or on ice. The PSMA-receptor-blocking agent 2-(phosphonomethyl)pentanedioic acid (2-PMPA; 500 μM; Axxora) was used to verify the specificity of the cellular uptake of the novel compounds. The cells were washed thrice (using 1 ml of ice-cold PBS), followed by an incubation with 0.5 ml of a glycine solution (50 mM in HCl at a pH of 2.8) for 5 min, washed once with 1 ml of ice-cold PBS, and finally lysed with 0.5 ml of 0.3 M NaOH. The lysate was collected, and the radioactivity was measured in a gamma-counter. Triplicate measurements were performed for all experiments.
compound,measurement,value
O=C([O-])CN1CCN(CC(=O)[O-])CCN(Cc2ccc(C(=O)NCC3CCC(C(=O)NC(Cc4ccc5ccccc5c4)C(=O)NCCCCC(NC(=O)NC(CCC(=O)O)C(=O)O)C(=O)O)CC3)cc2)CCN(CC(=O)[O-])CC1.[68Ga+3] (stereo not shown) [^68Ga-CA028],Specific lysate (internalization),41.2 ± 2.7 %IA/10^6 cells
